In publication PMC9775191, “A Subset Screen of the Compounds Australia Scaffold Library Identifies 7-Acylaminodibenzoxazepinones as Potent and Selective Hits for Anti-Giardia Drug Discovery” (Biomedicines, 2022):
Where two headings read alike, the source gives them in different places.

Key:
[1] = test system: G. duodenalis BRIS/91/HEPU/1279; experiment: Primary Giardia screen at 10 µM (live-cell imaging, automated counting); type: cell-based, Giardia duodenalis; settings: for inhibition at 10 µM: Giardia duodenalis
Summary of the method: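 Compounds were tested once each at 10 μM final (0.2% DMSO) in culture medium under 3% O2, 5% CO2 in N2. Growth was read at 24 and 48 h by live-cell imaging with automated counting, and inhibition expressed as percent growth versus 0.2% DMSO vehicle after media-only background subtraction.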

[2] = test system: G. duodenalis BRIS/91/HEPU/1279; experiment: Giardia dose response assay, assemblage B; type: cell-based, Giardia duodenalis
Method: In these assays, compounds were serially diluted (8–12-point doubling dilutions in technical duplicate) in DMSO control media, with all test wells inoculated with parasites (1.5 × 10^4 parasites for BRIS/91/HEPU/1279 and BRIS/91/HEPU/1279m1, or 3 × 10^3 parasites for BRIS/87/HEPU/713). […] All plates were sealed in culture chambers and gassed with 3% O2, 5% CO2 in N2 and incubated at 37 °C for 48 h, with parasites imaged and enumerated at 24 and 48 h. Growth inhibition was calculated as a percentage relative to vehicle controls minus any background as described above and IC50 values were determined using log-linear interpolation as previously described. […] Statistical comparison of IC50 values when required were performed using Student’s t-test.

[3] = test system: Neonatal foreskin fibroblast (NFF) cells; experiment: Mammalian cell cytotoxicity assay (sulforhodamine B); type: cell-based, human; settings: for inhibition at 20 µM: ±SD; for SI (48h Gd): Table S2, NFF vs 48 h Giardia IC50
Method: The selectivity of compounds of interest was assessed against NFF cells. Assays were performed using sulforhodamine B and included media only, negative (no compound, no DMSO), and vehicle (DMSO) controls as previously described. A chloroquine control plate was included in each assay. […] Repurchased SN00797640 was tested in dose–response from 100 µM against NFF. Selectivity indices (SI) were calculated by dividing mammalian cell IC50 values by G. duodenalis BRIS/91/HEPU/1279 IC50 values.

[4] = test system: Acinetobacter baumannii (ATCC 19606); experiment: Anti-bacterial activity assay; type: cell-based; settings: ATCC19606, 50 µM
Method: (§1) The activity of compounds against methicillin resistant Staphylococcus aureus (ATCC 43300), Escherichia coli (ATCC 25922), Acinetobacter baumannii (ATCC 19606) and Klebsiella pneumoniae (ATCC 700603) was assessed at 50 µM in duplicate as previously described. In brief, mid-log phase bacteria cultures were added to 384-well microtiter plate wells containing compound to final cell density of 5 × 10^5 CFU/mL in 50 µL. Plates were then covered and incubated at 37 °C for 18 h without shaking. Inhibition of bacterial growth was determined by measuring absorbance at 600 nm (Tecan M1000 Pro monochromator plate reader) and calculating percentage growth inhibition relative to the negative media and bacteria without inhibitors. Vancomycin hydrochloride (Sigma-Aldrich an affiliate of Merck KGaA, Darmstadt, Germany, #861987) and colistin sulfate (Sigma-Aldrich an affiliate of Merck KGaA, Darmstadt, Germany, C4461) were on each plate as positive controls for Gram-positive (S. aureus) and Gram-negative (E. coli, A. baumannii and K. pneumoniae) bacteria, respectively.

[5] = test system: Escherichia coli (ATCC 25922); experiment: Anti-bacterial activity assay; type: cell-based; settings: for inhibition at 50 µM: Escherichia coli, ATCC25922, 50 µM, read-out: Bacterial Inhibition E. coli
Method: as §1

[6] = test system: Klebsiella pneumoniae (ATCC 700603); experiment: Anti-bacterial activity assay; type: cell-based; settings: ATCC700603, 50 µM, read-out: Bacterial Inhibition K. pneumoniae
Method: as §1

[7] = test system: methicillin resistant Staphylococcus aureus (ATCC 43300); experiment: Anti-bacterial activity assay; type: cell-based; settings: for inhibition at 50 µM: Staphylococcus aureus, ATCC43300, 50 µM, read-out: Bacterial Inhibition S. aureus
Method: as §1

[8] = 24 h, first singlicate assay, read-out: % Inhibition n=1 24h
[9] = 24 h, re-assessment, read-out: % Inhibition n=2 24h
[10] = 24 h, read-out: Average % Inhibition 24h
[11] = 48 h, first singlicate assay, read-out: % Inhibition n=1 48h
[12] = 48 h, re-assessment, read-out: % Inhibition n=2 48h
[13] = 48 h, read-out: Average % Inhibition 48h
[14] = Giardia duodenalis, 24 h, read-out: G. duodenalis IC50 24h, Table S2, 24 h, ±SD, max 10 µM
[15] = Giardia duodenalis, 48 h, Table S2, 48 h, ±SD, max 10 µM, read-out: G. duodenalis IC50 48h

Structure (SMILES)	inhibition at 10 µM [1, 8] [%]	inhibition at 10 µM [1, 9] [%]	inhibition at 10 µM [1, 10] [%]	inhibition at 10 µM [1, 11] [%]	inhibition at 10 µM [1, 12] [%]	inhibition at 10 µM [1, 13] [%]	IC50 [2, 14] [µM]	IC50 [2, 15] [µM]	inhibition at 20 µM ([3]; Homo sapiens, NFF) [%]	SI (48h Gd) [3]	inhibition at 50 µM [4] [%]	inhibition at 50 µM [5] [%]	inhibition at 50 µM [6] [%]	inhibition at 50 µM [7] [%]	further results
COc1c(C)cnc(Cn2cnc([N+](=O)[O-])c2)c1C [SN00782023, COc1c(C)cnc(Cn2cnc(c2)N(=O)=O)c1C]	40.2	11.3	25.8	83.4	82.5	82.9	6.8	6.51	-6.3 ± 3.6	> 3	9.49	5.99	8.15	10	–
Cc1nn(-c2ccccc2)c2sc(C(=O)N3CCCCC3)cc12 [SN00783575, O=C(N1CCCCC1)c1cc2c(C)nn(c3ccccc3)c2s1]	34	8.3	21.1	63.8	15.4	39.6	> 10	> 10	26.9 ± 2.5	–	15.1	-4.12	16.3	6.02	–
CC(=O)Nc1ccc([N+](=O)[O-])c2nonc12 [SN00783960, CC(=O)Nc1ccc(N(=O)=O)c2nonc12]	53.9	36.2	45.1	66.5	60.2	63.3	3.1 ± 2.29	3.27 ± 4.08	98.5 ± 3.8	< 6	6.26	12	19.9	95.3	–
COc1cccc(Nc2c3c(nc4ccccc24)CCC3)c1 [SN00784168, COc1cccc(c1)Nc1c2CCCc2nc2ccccc12]	27.7	16.4	22	63.3	61.4	62.4	> 10	4.58 ± 4.9	75.1 ± 0.3	< 4	-2.44	3.98	-3.07	-10.7	–
Cc1ccc(-n2c(=O)c3c(cnn3C)n(CC(=O)Nc3ccccc3C)c2=O)cc1 [SN00784346, Cc1ccc(cc1)n1c(=O)n(CC(=O)Nc2ccccc2C)c2cnn(C)c2c1=O]	52	55.8	53.9	77.6	76.3	76.9	> 10	7.66	-1.1 ± 0.8	> 2	0.24	3.09	-2.01	5.68	–
Nc1c(-c2nc(-c3ccccc3)cs2)c2ccccn2c1C(=O)c1ccc2c(c1)OCO2 [SN00785732, O=C(c1ccc2OCOc2c1)c1c(N)c(c2scc(n2)c2ccccc2)c2ccccn12]	64.4	62	63.2	82.4	83.8	83.1	7.64	7.68	41.6 ± 2.7	> 2	9.69	0.23	9.49	2.41	–
Cc1ccc(NC(=O)c2cc3c(Cl)ccc4c3n2CCO4)cc1 [SN00788144, Cc1ccc(cc1)NC(=O)c1cc2c(Cl)ccc3OCCn1c23]	41	20.1	30.5	65.8	32.9	49.3	> 10	> 10	31.4 ± 11.3	–	20.8	2.85	13.5	-2.91	–
CC1CCN(C(=O)c2oc3ccccc3c2NC(=O)c2ccc([N+](=O)[O-])o2)CC1 [SN00788467]	93.2	82.3	87.7	93.9	96.4	95.2	0.24 ± 0.04	–	–	> 166	3.19	3.73	-1.21	99.1	Average % Inhibition 48h ([1]; 48 h): > 90%; fold more potent than metronidazole ([2]; 48 h IC50): > 45 fold; IC50 ([2]; Giardia duodenalis, 48 h, BRIS/91/HEPU/1279, 48 h, mean ± SD, read-out: IC50 Giardia (48 h)): 0.06 µM; IC50 ([3]; Homo sapiens, NFF, mean ± SD, read-out: IC50 NFF): > 10 µM; Selectivity ([3]; NFF IC50 divided by G. duodenalis BRIS/91/HEPU/1279 IC50): >166; selectivity index over bacteria ([5]; E. coli, A. baumannii and K. pneumoniae / bacteria, Table S2): > 800; Bacterial Inhibition S. aureus ([7]; 50 µM): 99%
CCc1nnc2c3ccccc3nc(N3CCN(c4cccc(Cl)c4)CC3)n12 [SN00788523, CCc1nnc2n1c(nc1ccccc21)N1CCN(CC1)c1cccc(Cl)c1]	38.2	28.9	33.6	65.8	80.4	73.1	> 10	6.91	-0.2 ± 22.2	> 2	1.85	2.37	22.1	1.08	inhibition at 10 µM ([2]; Giardia duodenalis, read-out: % inhibition @ 10µM 48h (comment), Table S2 comment, 10 µM, 48 h): 44%
